According to patent US10093716B2, “Methods for treating cancer” (UCL BUSINESS PLC, priority 2013, dated 2018):

What was measured:
A549 cells = test: xCELLigence migration assay, A549; assay type: cell-based, human; conditions: 100 μg/ml recombinant receptor-Fc protein during migration, FIG. 1F
Experimental: siRNA-mediated knockdown. Knockdown experiments were performed by transient transfection of RISC-free control siRNA, siRNA pools or single sequences (Dharmacon) to silence the indicated proteins using Dharmafect I (Dharmacon) following the instruction manual. All cell lines were incubated for 48 h to achieve sufficient knockdown.
Migration assays. Migration assays were performed using the xCELLigence System (Roche) according to manufacturer's instructions. See Supplementary Methods for detailed description.
Migration assays were performed using the xCELLigence System (Roche) that uses specially designed microtiter plates containing gold microelectrodes to measure electrical impedance of cells adhering to electrodes in real time. Increased impedance of background control wells was subtracted from all other values, the increase in electrical impedance/migration of control siRNA-transfected/control vector-infected cells was then defined as 100% migration and relative migration of all other transfected samples was calculated as compared to control-transfected cells, accordingly. Migration plates (CIM 16) are based on the Boyden chamber principle, the lower surface of the filter is covered with microelectrodes measuring cells that have migrated through the pores and adhere to the lower surface of the filter in real time. […]

A549-luc cells = test: Experimental lung metastasis model, A549-luc cells injected into tail vein; assay type: in vivo, SCID beige mice; conditions: 0.5 mg/mouse i.p., 3× per week starting 1 day after cell injection; bioluminescence after 2 weeks; FIG. 3D
Experimental: FIGS. 3A-3D| KRAS-mutated cells require autocrine TRAIL-R2-mediated migration for metastasis formation. FIG. 3A, 2×10^6 A549-luc cells infected with shTRAIL-R2 or control vector were injected into the tail vein of SCID beige mice. Metastatic burden in the lungs was detected after three weeks by quantification of bioluminescence (Photons/second). Three representative mice from each group are shown (n=9/group). FIG. 3B, FIG. 3C Five lungs from each group that were closest to the average value of the respective group in the H&E quantification were subjected to further Ki67 and TUNEL stainings and quantified as Ki67 and TUNEL positive area within tumor nodules, respectively. Representative images are shown. FIG. 3D, A549-luc parental cells were injected as in FIG. 3A, mice were treated with Vehicle (PBS) or 0.5 mg TRAIL-R2-Fc/mouse starting the next day, 3× per week.
Bioluminescence was determined after 2 weeks, representative mice are shown (n=8/group). Arrows indicate Ki67/TUNEL-positive cells. Dots represent individual lungs. Values are means+/−SEM; ns, not significant; * P<0.05 Student's t-test.
Animal Models. […] Photons per second (Photon Flux) were quantified using the Ivis Spectrum software. […] After one week, tumours were palpable and their size was measured by caliper. […]

Rac1 [1] = test: Rac1 pulldown assay (GTP-bound Rac1, PAK1-beads), A549; assay type: cell-based, human; conditions: A549 cells, iz-TRAIL 100 ng/ml; FIG. 8E
Experimental: FIGS. 8A-8J| Autocrine TRAIL is required for caspase-independent migration and Rac1 activation. FIG. 8A, DLD-1 cells were transfected with the indicated siRNAs and subjected to migration assays. FIG. 8B, A549 cells were treated with DMSO or 10 μM zVAD-fmk and were subsequently subjected to migration assays. FIG. 8C, Dominant negative FADD (dnFADD)-overexpressing DLD-1 cells were transfected with the indicated siRNAs and subjected to migration assays. FIG. 8D, Parental and DLD-1 cells overexpressing dnFADD were treated with 1 μg/ml iz-TRAIL for the indicated times, subsequently lysed and subjected to Western blot analysis. FIG. 8E, A549 cells were treated with iz-TRAIL (100 ng/ml) for the indicated times and subjected to pulldown of GTP-bound Rac1 using PAK1-beads (Millipore-Rac1 activation kit). Cell lysates were subsequently analyzed by Western blotting. FIG. 8F, Control or shTRAIL-R2-infected A549 cells were subjected to pulldown of GTP-bound Rac1 as in FIG. 8E. FIG. 8G, A549 cells were transfected with the indicated siRNAs and subjected to migration assays. FIG. 8H, KRAS-mutated (DLD-1, HCT116) and isogenic KRAS-WT (DKO4, Hkh-2) cell lines were lysed and subjected to Western blotting. FIG. 8I, KRAS-mutated H460 cells were transfected with the indicated siRNAs. […]
2.5×10^6 cells were seeded into 10 cm dishes. […] Proteins were separated by SDS-PAGE (NuPAGE) and analyzed by Western blotting.

Rac1 [2] = test: Rac1 pulldown assay (GTP-bound Rac1, PAK1-beads), isogenic DLD-1 and DKO4; assay type: cell-based, human; conditions: isogenic KRAS-mutated DLD-1 versus KRAS-WT DKO4, iz-TRAIL 100 ng/ml; FIG. 7E
Experimental: FIGS. 7A-7F| Autocrine migration is independent of the DISC but requires Rac1. FIG. 7A, FADD-deficient clones 10, 41 and 50 were transfected with the indicated siRNAs and subjected to migration assays. FIG. 7B, Control vector-infected or shTRAIL-R2-infected A549 cells were fixed and stained using Texas red-coupled phalloidin and DAPI. Representative confocal images are shown (×400).c, A549 cells were treated with DMSO, PD98059 (10 μM), PIK75 (100 nM) or NSC23766 (100 μM) and subjected to migration assays. FIG. 7D, A549 cells were transfected with the indicated siRNAs and subjected to migration assays. FIG. 7E, Isogenic DLD-1 and DKO4 cells were treated with iz-TRAIL (100 ng/ml) for the indicated times and then subjected to pulldown of GTP-bound Rac1 using PAK1-beads (Millipore-Rac1 activation kit). FIG. 7F, KRAS-WT DKO4 cells were transfected with the indicated siRNAs and prior to migration treated with vehicle (H2O) or 10 μM Y27632. Representative Western blots are shown.
2.5×10^6 cells were seeded into 10 cm dishes. The next day, cells were incubated with and without 100 ng/ml iz-TRAIL. Cell lysis and Rac1 pulldown was performed using a Rac1-pulldown kit (Millipore) according to the manufacturer's instructions. Proteins were separated by SDS-PAGE (NuPAGE) and analyzed by Western blotting.

TRAIL-R2-Fc fusion protein: majority of the extracellular domain of human TRAIL-R2 fused to the Fc portion of human IgG1 (SEQ ID NO: 15); TRAIL-inhibiting
migration (normalized to PBS-treated cells) (A549 cells): suppressed migration to a similar extent | metastasis (metastatic burden in lungs, bioluminescence) (A549-luc cells): significantly reduced metastasis

B1: TRAIL: recombinant iz-TRAIL produced in E. coli, LPS-free after purification (protein)
chain: MAMMEVQGGPSLGQTCVLIVIFTVLLQSLCVAVTYVYFTNELKQMQDKYSKSGIACFLKEDDSYWDPNDEESMNSPCWQVKWQLRQLVRKMILRTSEETISTVQEKQQNISPLVRERGPQRVAAHITGTRGRSNTLSSPNSKNEKALGRKINSWESSRSGHSFLSNLHLRNGELVIHEKGFYYIYSQTYFRFQEEIKENTKNDKQMVQYIYKYTSYPDPILLMKSARNSCWSKDAEYGLYSIYQGGIFELKENDRIFVSVTNEHLIDMDHEASFFGAFLVG
Rac1 activation (GTP-bound Rac1 pulldown) (Rac1 [1]): able to activate Rac1 | Rac1 activation (GTP-bound Rac1 pulldown) (Rac1 [2]): only capable of doing so in KRAS-mutated cells
